What is called MIC is the lowest concentration that inhibits growth of the organism. Low readings indicate greater potency, high ones weaker potency.

Converted amounts (≈) assume the structure as drawn. “And” between values parts separate entries of the source, which are not always exact repeats. Equal values may be shown once.

Test [1] has as its system SARS-CoV-2 Isolate England02/2020. The class given is cell-based.
Test [2] deals with Respiratory Syncytial Virus (RSV). Put plainly: TCID50 assay after 1 h incubation of virus with LTX-109 (Example 2). It is filed as cell-based. The conditions noted are these: for Percentage: decrease in RSV infectivity, compared to PBS control. The procedure:
To test whether 1% LTX-109 (w/v) and 0.1% LTX-109 (w/v) have antiviral activity against RSV, 1×10^5 infectious units of RSV (40 μl) were incubated with four volumes of 1% LTX-109 or 0.1% LTX-109 dissolved in PBS (160 μl) or a PBS (Phosphate-buffered saline) control. The experiment was performed in triplicates.
After 1 hour, the incubation was stopped by adding an excess of cold media, and the formulation was physically separated from the virus through a filter to reduce cytotoxicity on the assay cells. Some cloudiness in the preparation was observed, particularly for the 1% formulation, but no precipitation. Infectious virus was quantified through a serial dilution (a series of ten-fold dilutions) on monolayers of Hep2 cells in microtitre plates (Hep2 cells are mammalian cells capable of displaying a cytopathic effect (CPE) upon viral infection). The starting solution for the serial dilution (i.e. the neat (or undiluted) solution) was obtained by re-suspending the virus that was separated via the filtration step in 1 ml of media. For each dilution of the virus in the dilution series, eight wells of the microtitre plate were tested (i.e. each dilution of virus was applied to eight separate wells, each well containing a Hep2 cell monolayer). Appropriate controls were also performed. […] The TCID50 (TCID50/ml) assay (Tissue Culture Infectious Dose 50 assay) is a type of endpoint dilution assay that is well known in the art and routinely used to quantitatively measure virus titres. TCID50/ml provides a measure of infectious units of virus/ml. “/ml” refers to/ml of the starting solution (i.e. neat/undiluted solution) mentioned above.

Test [3] concerns Rhinovirus 60, 2268-CV37. The test is described as follows: TCID50 assay after 1 h incubation of virus with 3% LTX-109, stopped by dilution (Example 7). It is filed as cell-based.
The subject of test [4] is Rhinovirus 60, 2268-CV37. The test is described as follows: TCID50 assay after 1 h incubation of virus with 1% LTX-109 (Example 6). The class given is cell-based.
Test [5] has as its system Pseudomonas aeruginosa. The conditions noted are these: Pseudomonas aeruginosa - ATCC 27853 - antibiotic-susceptible type strain; three replicates (frozen and fresh MHB plates). The procedure: Bacterial and fungal isolates used in this study were from various sources worldwide stored at GR Micro Ltd. and maintained, with minimal sub-culture, deep frozen at −70° C. as a dense suspension in a high protein matrix of undiluted horse serum.
Minimum inhibitory concentration (MIC) of LTX-109 was determined using the following microbroth dilution methods for antimicrobial susceptibility testing published by the Clinical and Laboratory Standards Institute (CLSI, formerly NCCLS): • M7-A6 Vol. 23 No. 2 Jan. 2003 Methods for Dilution Antimicrobial Susceptibility Tests for Bacteria that Grow Aerobically; Approved Standard-Sixth Edition. National Committee for Clinical Laboratory Standards. • M100-S15 Vol. 25 No 1. January 2005 Performance Standards for Antimicrobial Susceptibility Testing; Fifteenth Informational Supplement. Clinical and Laboratory Standards Institute • M11-A6 Vol. 24 No. 2 Methods for Antimicrobial Susceptibility Testing of Anaerobic Bacteria; Approved Standard-Sixth Edition. National Committee for Clinical Laboratory Standards. • M27-A2 Vol. 22 No. 15 Reference Method for Broth Dilution Antifungal Susceptibility Testing of Yeasts; Approved Standard-Second Edition. […] National Committee for Clinical Laboratory Standards.
MIC estimations were performed using wet plates, containing the LTX-109, prepared at GR Micro Ltd. […]

On to `CC(C)(C)c1cc(C(C)(C)C)c2[nH]c(C(C)(C)C)c(CC(NC(=O)C(N)CCCNC(=N)N)C(=O)NC(CCCNC(=N)N)C(=O)NCCc3ccccc3)c2c1` (stereo not shown) [LTX-109], for which the Log in test [1] was 2.28; in test [2] (log of RSV titre after 1 h with 0.1% LTX-109), 1.78; in test [2] (log of RSV titre after 1 h with 1% LTX-109), 2.20; in test [3] (log of Rhinovirus titre after 1 hour with 3% LTX-109 or 0.25% SDS) it was 2.3; in test [4] (log of Rhinovirus titre after 1 hour with 1% LTX-109 or 0.25% SDS), 3.7. Further, the Percentage in test [1] was 99.99% and 99.995%; in test [2] (0.1% LTX-109, 1 h), 99.9% and 99.97%; in test [2] (1% LTX-109, 1 h), 99.9% and 99.949%; in test [3] (decrease in Rhinovirus infectivity, 3% LTX-109 or 0.25% SDS, 1 hour, compared to PBS control) it was 98.87%; in test [4] (decrease in Rhinovirus infectivity, 1% LTX-109 or 0.25% SDS, 1 hour, compared to PBS control), 98.89%. Also, the Log decrease in test [3] (Rhinovirus, 3% LTX-109 or 0.25% SDS, 1 hour, compared to PBS control) worked out at 1.9 log; in test [4] (Rhinovirus, 1% LTX-109 or 0.25% SDS, 1 hour, compared to PBS control), 1.9 log. In test [5], this compound had an MIC of 8 µg/mL (≈ 10.2 µM).

(Values after patent publication US20240148819A1, “COMPOUNDS FOR USE IN THE TREATMENT OF SINUSITIS, PNEUMONIA OR OTITIS” (PHARMA HOLDINGS AS, priority 2021, published 2024).)
